# Measurements from PMC7568570, “Resensitizing carbapenem- and colistin-resistant bacteria to antibiotics using auranofin” (Nature Communications, 2020).
# Molecular target: T1, MCR-1 (Escherichia coli, UniProt A0A0R6L508)
# T1 construct: gene mcr1; MCR-1-S, soluble periplasmic domain, residues 201-541 (200-541aa in Methods)
# Assay: equilibrium dialysis with ICP-MS (Kd); crystal structure by soaking at […] Å; TLC cleavage inhibition of full-length MCR-1
# Assay type: binding
# T1 sequence (A0A0R6L508 201-541): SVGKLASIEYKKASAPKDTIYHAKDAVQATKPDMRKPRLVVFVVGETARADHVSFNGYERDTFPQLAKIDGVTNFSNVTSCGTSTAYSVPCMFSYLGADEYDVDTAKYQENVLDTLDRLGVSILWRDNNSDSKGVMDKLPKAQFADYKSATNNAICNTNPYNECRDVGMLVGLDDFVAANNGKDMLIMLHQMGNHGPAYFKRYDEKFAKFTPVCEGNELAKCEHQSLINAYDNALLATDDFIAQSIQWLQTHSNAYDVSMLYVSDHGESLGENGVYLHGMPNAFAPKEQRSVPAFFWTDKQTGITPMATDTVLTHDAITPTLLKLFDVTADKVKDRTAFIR
smiles,measurement,value
"CC[P+](CC)(CC)[Au-][Cl] [Au(PEt3)Cl, chloro(triethylphosphine)gold(I)]",Kd,3.36 ± 0.38 µM
